Source: US12251445B2, “Gamma-hydroxybutyrate delivering compounds and processes for making and using them” (Zevra Therapeutics, Inc., priority 2022, dated 2025)

Assay: Pharmacokinetics of GHB in plasma after oral gavage of GHB delivering compounds in rats
Details: vehicle water, mean conjugate/mean comparator
[1] = molar equivalent of 100 mg/kg NaGHB
[2] = dose equivalent to 80 mg/kg NaGHB

Row | Structure (SMILES) | % AUC0-4 hr vs study comparator sodium oxybate [1] | % Cmax vs study comparator sodium oxybate [1] | % AUC0-4 hr vs study comparator sodium oxybate [2] | % Cmax vs study comparator sodium oxybate [2]
1 | O=C1CCCO1 [GBL] | 27% | 70% |  | 
2 | CCOC(=O)OCCCC(=O)O [O-(ethoxycarbonyl)-GHB] |  |  | 54% | 51%
